In patent US7102009B2, “Substituted amine derivatives and methods of use” (Amgen Inc., priority 2001, dated 2006):

The compounds below were run on Human Umbilical Vein Endothelial cells (VEGF-stimulated HUVEC proliferation) (assay: HUVEC Proliferation Assay (VEGF-stimulated)). Conditions: VEGF 50 ng/mL, 72 h incubation, CyQuant readout, read-out: inhibited VEGF-stimulated HUVEC proliferation at a level below (IC50).
Format: cell-based
Method: Human Umbilical Vein Endothelial cells are purchased from Clonetics, Inc., as cryopreserved cells harvested from a pool of donors. These cells, at passage 1, are thawed and expanded in EBM-2 complete medium, until passage 2 or 3. The cells are trypsinized, washed in DMEM+10% FBS+antibiotics, and spun at 1000 rpm for 10 min. Prior to centrifugation of the cells, a small amount is collected for a cell count. After centrifugation, the medium is discarded, and the cells are resuspended in the appropriate volume of DMEM+10% FBS+antibiotics to achieve a concentration of 3×10^5 cells/mL. Another cell count is performed to confirm the cell concentration. The cells are diluted to 3×10^4 cells/mL in DMEM+10% FBS+antibiotics, and 100 μL of cells are added to a 96-well plate. The cells are incubated at 37° C. for 22 h.
Prior to the completion of the incubation period, compound dilutions are prepared. Five-point, five-fold serial dilutions are prepared in DMSO, at concentrations 400-fold greater than the final concentrations desired. 2.5 μL of each compound dilution are diluted further in a total of 1 mL DMEM+10% FBS+antibiotics (400× dilution). Medium containing 0.25% DMSO is also prepared for the 0 μM compound sample. At the 22-hour timepoint, the medium is removed from the cells, and 100 μL of each compound dilution is added. The cells are incubated at 37° C. for 2-3 h.
During the compound pre-incubation period, the growth factors are diluted to the appropriate concentrations. Solutions of DMEM+10% FBS+antibiotics, containing either VEGF or bFGF at the following concentrations: 50, 10, 2, 0.4, 0.08, and 0 ng/mL are prepared. For the compound-treated cells, solutions of VEGF at 550 ng/mL or bFGF at 220 ng/mL for 50 ng/mL or 20 ng/mL final concentrations, respectively, are prepared since 10 μL of each will be added to the cells (110 μL final volume). At the appropriate time after adding the compounds, the growth factors are added. VEGF is added to one set of plates, while bFGF is added to another set of plates. For the growth factor control curves, the media on wells B4-G6 of plates 1 and 2 are replaced with media containing VEGF or bFGF at the varying concentrations (50-0 ng/mL). The cells are incubated at 37° C. for an additional 72 h.
At the completion of the 72 h incubation period, the medium is removed, and the cells are washed twice with PBS. After the second wash with PBS, the plates are tapped gently to remove excess PBS, and the cells are placed at −70° C. for at least 30 min. The cells are thawed and analyzed using the CyQuant fluorescent dye (Molecular Probes C-7026), following the manufacturer's recommendations. The plates are read on a Victor/Wallac 1420 workstation at 485 nm/530 nm (excitation/emission). Raw data are collected and analyzed using a 4-parameter fit equation in XLFit. IC50 values are then determined.
`O=C(Nc1ccc(C(F)(F)F)c(OC[C@H]2CCCN2)c1)c1cccnc1Nc1ccc2cn[nH]c2c1` [Example 85, 2-(1H-Indazol-6-ylamino)-N-[3-(pyrrolidin-2-ylmethoxy)-4-trifluoromethyl-phenyl]-nicotinamide] was tested, and the IC50 was under 0.05 µM.
With `O=C(Nc1ccc(C(F)(F)F)c(OCCN2CCCC2)c1)c1cccnc1Nc1ccc2cn[nH]c2c1` [Example 86, 2-(1H-Indazol-6-ylamino)-N-[3-(2-pyrrolidin-1-yl-ethoxy)-4-trifluoromethyl-phenyl]-nicotinamide] the IC50 was under 0.05 µM.
`CC(=O)N1CC(C)(C)c2ccc(NC(=O)c3cccnc3Nc3ccc4cn[nH]c4c3)cc21` [Example 87, N-(1-Acetyl-3,3-dimethyl-2,3-dihydro-1H-indol-6-yl)-2-(1H-indazol-6-ylamino)-nicotinamide] gave an IC50 of under 0.05 µM.
Work on `CN1CCC(C(C)(C)c2ccc(NC(=O)c3cccnc3Nc3ccc4cn[nH]c4c3)cc2)CC1` [Example 88, 2-(1H-Indazol-6-ylamino)-N-{4-[1-methyl-1-(1-methyl-piperidin-4-yl)-ethyl]-phenyl}-nicotinamide] yielded an IC50 of under 0.05 µM.
Compound `CC(=O)N1CC(C)(C)Oc2ccc(NC(=O)c3cccnc3Nc3ccc4cn[nH]c4c3)cc21` [Example 89, N-(4-Acetyl-2,2-dimethyl-3,4-dihydro-2H-benzo[1,4]oxazin-6-yl)-2-(1H-indazol-6-ylamino)-nicotinamide] has an IC50 of under 0.05 µM.
`CN1CCC(c2cc(NC(=O)c3cccnc3Nc3ccc4cn[nH]c4c3)cc(C(F)(F)F)c2)CC1` [Example 90, 2-(1H-Indazol-6-ylamino)-N-[3-(1-methyl-piperidin-4-yl)-5-trifluoromethyl-phenyl]-nicotinamide] showed an IC50 of under 0.05 µM.
`CN1CC(C)(C)Oc2ccc(NC(=O)c3cccnc3Nc3ccc4cn[nH]c4c3)cc21` [Example 92, 2-(1H-Indazol-6-ylamino)-N-(2,2,4-trimethyl-3,4-dihydro-2H-benzo[1,4]oxazin-6-yl)-nicotinamide] showed an IC50 of under 0.05 µM.
For `CC(C)(C)c1ccc(NC(=O)c2cccnc2Nc2ccc3cn[nH]c3c2)cc1OCC1CCNCC1` [Example 93, N-[4-tert-Butyl-3-(piperidin-4-ylmethoxy)-phenyl]-2-(1H-indazol-6-ylamino)-nicotinamide], the IC50 was under 0.05 µM.
In the case of `CC(=O)N1Cc2cc(NC(=O)c3cccnc3Nc3ccc4cn[nH]c4c3)ccc2C(C)(C)C1` [Example 94, N-(2-Acetyl-4,4-dimethyl-1,2,3,4-tetrahydro-isoquinolin-7-yl)-2-(1H-indazol-6-ylamino)-nicotinamide], the IC50 is reported as under 0.05 µM.
For `CC(C)(C)OC(=O)N1CCC[C@H]1COc1cc(NC(=O)c2cccnc2Nc2ccc3cn[nH]c3c2)ccc1C(C)(C)C` [Example 95, 1-Boc-2-(2-tert-Butyl-5-{[2-(1H-indazol-6-ylamino)-pyridine-3-carbonyl]-amino}-phenoxymethyl)-pyrrolidine], the IC50 was under 0.05 µM.
`CC(C)(C)c1ccc(NC(=O)c2cccnc2Nc2ccc3cn[nH]c3c2)cc1OC[C@@H]1CCCN1` [Example 96, N-[4-tert-Butyl-3-(pyrrolidin-2-ylmethoxy)-phenyl]-2-(1H-indazol-6-ylamino)-nicotinamide] was tested, and the IC50 was under 0.05 µM.
For `O=C(Nc1cc(OC[C@@H]2CCCN2)cc(C(F)(F)F)c1)c1cccnc1Nc1ccc2cn[nH]c2c1` [Example 97, 2-(1H-Indazol-6-ylamino)-N-[3-(2S-pyrrolidin-2-ylmethoxy)-5-trifluoromethyl-phenyl]-nicotinamide], the IC50 was under 0.05 µM.
`CC(C)(C)c1ccc(NC(=O)c2cccnc2Nc2ccc3cn[nH]c3c2)cc1N1CCNCC1` [Example 98, N-(4-tert-Butyl-3-piperazin-1-yl-phenyl)-2-(1H-indazol-6-ylamino)-nicotinamide] gave an IC50 of under 0.05 µM.
With `CC1(C)CNc2cc(NC(=O)c3cccnc3Nc3ccc4cn[nH]c4c3)ccc21` [Example 99, N-(3,3dimethyl-2,3-dihydro-1H-indol-6-yl)-2-(1H-indazol-6-ylamino)-nicotinamide] the IC50 was under 0.05 µM.
`CC1(C)CN(C2CCNCC2)c2cc(NC(=O)c3cccnc3Nc3ccc4cn[nH]c4c3)ccc21` [Example 100, N-(3,3-Dimethyl-1-piperidin-4-yl-2,3-dihydro-1H-indol-6-yl)-2-(1H-indazol-6-ylamino)-nicotinamide] was tested, and the IC50 was under 0.05 µM.
Compound `CC1(C)CNc2cc(NC(=O)c3cccnc3Nc3ccc4cn[nH]c4c3)ccc2O1` [Example 101, N-(2,2-Dimethyl-3,4-dihydro-2H-benzo[1,4]oxazin-6-yl)-2-(1H-indazol-6-ylamino)-nicotinamide] has an IC50 of under 0.05 µM.
Work on `CCCN1CCN(c2cc(NC(=O)c3cccnc3Nc3ccc4cn[nH]c4c3)ccc2C(C)(C)C)CC1` [Example 102, N-[4-tert-Butyl-3-(4-propyl-piperazin-1-yl)-phenyl]-2-(1H-indazol-6-ylamino)-nicotinamide] yielded an IC50 of under 0.05 µM.
For `CC(C)N1CCN(c2cc(NC(=O)c3cccnc3Nc3ccc4cn[nH]c4c3)ccc2C(C)(C)C)CC1` [Example 103, N-[4-tert-Butyl-3-(4-isopropyl-piperazin-1-yl)-phenyl]-2-(1H-indazol-6-ylamino)-nicotinamide], the IC50 was under 0.05 µM.
With `CN1CCC[C@H]1COc1cc(NC(=O)c2cccnc2Nc2ccc3cn[nH]c3c2)cc(C(F)(F)F)c1` [Example 104, 2-(1H-Indazol-6-ylamino)-N-[3-(1-methylpyrrolidin-2-ylmethoxy)-5-trifluoromethyl-phenyl]-nicotinamide] the IC50 was under 0.05 µM.
For `CC1(C)CNC(=O)c2cc(NC(=O)c3cccnc3Nc3ccc4cn[nH]c4c3)ccc21` [Example 105, N-(4,4-Dimethyl-1-oxo-1,2,3,4-tetrahydro-isoquinolin-7-yl)-2-(1H-indazol-6-ylamino)-nicotinamide], the IC50 was under 0.05 µM.
With `CC1(C)COc2cc(NC(=O)c3cccnc3Nc3ccc4cn[nH]c4c3)ccc21` [Example 106, N-(3,3-Dimethyl-2,3-dihydro-benzofuran-6-yl)-2-(1H-indazol-6-ylamino)-nicotinamide] the IC50 was under 0.05 µM.
`CN(C)CC(=O)N1CC(C)(C)c2ccc(NC(=O)c3cccnc3Nc3ccc4cn[nH]c4c3)cc21` [Example 107, N-[1-(2-Dimethylamino-acetyl)-3,3-dimethyl-2,3-dihydro-1H-indol-6-yl]-2-(1H-indazol-6-ylamino)-nicotinamide] was tested, and the IC50 was under 0.05 µM.
With `CN1CCN(Cc2cc(NC(=O)c3cccnc3Nc3ccc4cn[nH]c4c3)ccc2C(F)(F)C(F)(F)F)CC1` [Example 108, 2-(1H-Indazol-6-ylamino)-N-[3-(4-methyl-piperazin-1-ylmethyl)-4-pentafluoroethyl-phenyl]-nicotinamide] the IC50 was under 0.05 µM.
In the case of `O=C(Nc1ccc(C(F)(F)C(F)(F)F)c(CN2CCOCC2)c1)c1cccnc1Nc1ccc2cn[nH]c2c1` [Example 110, 2-(1H-Indazol-6-ylamino)-N-(3-morpholin-4-ylmethyl-4-pentafluoroethyl-phenyl)-nicotinamide], the IC50 is reported as under 0.05 µM.
`O=C(Nc1ccc(C(F)(F)C(F)(F)F)c(CN2CCNCC2)c1)c1cccnc1Nc1ccc2cn[nH]c2c1` [Example 111, 2-(1H-Indazol-6-ylamino)-N-(4-pentafluoroethyl-3-piperazin-1-ylmethyl-phenyl)-nicotinamide] gave an IC50 of under 0.05 µM.
With `CC(C)(C)c1ccc(NC(=O)c2cccnc2Nc2ccc3cn[nH]c3c2)cc1NCCO` [Example 115, N-[4-tert-Butyl-3-(2-hydroxy-ethylamino)-phenyl]-2-(1H-indazol-6-ylamino)-nicotinamide] the IC50 was under 0.05 µM.
`CC(C)(C)c1ccc(NC(=O)c2cccnc2Nc2ccc3cn[nH]c3c2)cc1NCCN1CCOCC1` [Example 116, N-[4-tert-Butyl-3-(2-morpholin-4-yl-ethylamino)-phenyl]-2-(1H-indazol-6-ylamino)-nicotinamide] showed an IC50 of under 0.05 µM.
Work on `O=C(Nc1ccc2c(c1)CN(CCN1CCOCC1)CC2)c1cccnc1Nc1ccc2cn[nH]c2c1` [Example 118, 2-(1H-Indazol-6-ylamino)-N-[2-(2-morpholin-4-yl-ethyl)-1,2,3,4-tetrahydro-isoquinolin-7-yl]-nicotinamide] yielded an IC50 of under 0.05 µM.
Work on `O=C(Nc1ccc2c(C(F)(F)F)cc(=O)oc2c1)c1cccnc1Nc1ccc2cn[nH]c2c1` [Example 120, 2-(1H-Indazol-6-ylamino)-N-(2-oxo-4-trifluoromethyl-2H-chromen-7-yl)-nicotinamide] yielded an IC50 of under 0.05 µM.
